Source: patent publication US20240252651A1, “METHOD OF DELIVERING NUCLEIC ACIDS INTO CELLS” (GUANGZHOU LIDE BIOMEDICINE TECHNOLOGY CO., LTD., priority 2021, published 2024)
“Also recorded” adds a separate entry of the source.

Tests used:
DC 2.4 cells = assay: Transfection of eGFP-mRNA in DC 2.4 cells (FCM and LSCM); type: cell-based, mouse; settings: mRNA 0.2 μg/well, material 0.25 to 2 μg/well (dosages per FIG. 7), 24 h
Experimental: In this experiment, with eGFP-mRNA as model mRNA, an mRNA transfection efficiency of a cationic lipid analog material in DC 2.4 cells was detected. A specific operation method was as follows:
DC 2.4 cells were inoculated in a 48-well plate and cultured in an incubator for 12 h; each of different cationic lipid analog materials (0.25 μg/well to 2 μg/well) was mixed with cGFP-expressing mRNA (0.2 μg/well) in 20 μL of a sodium acetate buffer (25 mM, pH 5.2), and resulting mixtures each were allowed to stand for 10 min and then diluted with 230 μL of a Opti-MEM medium to obtain mRNA-loaded complex particle solutions; a medium for the […] were washed once with PBS, and the complex particle solutions were added; and the cells were cultured for 24 h, an mRNA transfection efficiency in cells was observed by FCM and LSCM. A commercial gene transfection reagent Lipofectamine 2000 was adopted as a positive control.

Hela cells = assay: Transfection of GFP-expressing plasmid DNA in Hela cells (flow cytometer); type: cell-based, human; settings: plasmid DNA 0.5 μg/well, material 0.25 to 8 μg/well (dosages per FIG. 4), 24 h
Experimental: In this experiment, with GFP-expressing plasmid DNA as a reporter gene, a gene transfection efficiency of a cationic lipid analog material in Hela cells was detected. A specific method was as follows:
Hela cells were inoculated in a 24-well plate and cultured in an incubator for 12 h; each of different cationic lipid analog materials (0.25 μg/well to 8 μg/well) was mixed with GFP-expressing plasmid DNA (0.5 μg/well) in 40 μL of a sodium acetate buffer (25 mM, pH 5.2), and resulting mixtures each were allowed to stand for 10 min and then diluted with 460 μL of an Opti-MEM medium to obtain plasmid DNA-loaded cationic lipid analog complex particle solutions; a medium for the Hela cells in the plate was removed, then the HeLa cells were washed once with PBS, and the complex particle solutions were added; and the cells were cultured for 24 h, and then a plasmid DNA transfection efficiency in cells was analyzed by a flow cytometer. A commercial gene transfection reagent Lipofectamine 2000 was adopted as a positive control.

| SMILES | transfection efficiency of GFP-expressing plasmid DNA, compared with commercial transfection reagent Lipofectamine 2000 (Hela cells) | mRNA transfection efficiency (eGFP-mRNA), compared with Lipofectamine 2000 (DC 2.4 cells; FIG. 7-9) | further results |
| --- | --- | --- | --- |
| CCCCCCCCCCCCCCCC(=O)N(CCCN(C)C)C(C(=O)NCCCCCCNC(=O)C(C(C)C)N(CCCN(C)C)C(=O)CCCCCCCCCCCCCCC)C(C)C (centres unmarked) [I1R2C16A1] |  |  | mRNA transfection efficiency (eGFP-mRNA), compared with Lipofectamine 2000 (DC 2.4 cells; FIG. 7-9, listed as 11R2C16A1): high transfection efficiency; also recorded: equivalent to or higher than |
| CCCCCCCC/C=C\CCCCCCCC(=O)N(CCCN(C)C)C(C(=O)NCCCCCCNC(=O)C(C(C)C)N(CCCN(C)C)C(=O)CCCCCCC/C=C\CCCCCCCC)C(C)C (centres unmarked) [I1R2C18-1A1] |  |  | mRNA transfection efficiency (eGFP-mRNA), compared with Lipofectamine 2000 (DC 2.4 cells; FIG. 7-9, listed as 11R2C18-1A1): high transfection efficiency; also recorded: equivalent to or higher than |
| CCCCC/C=C\C/C=C\CCCCCCCC(=O)N(CCCN(C)C)C(C(=O)NCCCCCCNC(=O)C(C(C)C)N(CCCN(C)C)C(=O)CCCCCCC/C=C\C/C=C\CCCCC)C(C)C (centres unmarked) [I1R2C18-2A1] | reaches or is higher than | equivalent to or higher than | transfection efficiency of GFP-expressing plasmid DNA, compared with commercial transfection reagent Lipofectamine 2000 (Hela cells; listed as 11R2C18-2A1): equivalent to or higher than; mRNA transfection efficiency (eGFP-mRNA), compared with Lipofectamine 2000 (DC 2.4 cells; FIG. 7-9, listed as 11R2C18-2A1): high transfection efficiency |
| CCCCCCCCCCCCCCCCCC(=O)N(CCCN(C)C)C(C(=O)NCCCCCCNC(=O)C(C(C)C)N(CCCN(C)C)C(=O)CCCCCCCCCCCCCCCCC)C(C)C (centres unmarked) [I1R2C18A1] |  |  | mRNA transfection efficiency (eGFP-mRNA), compared with Lipofectamine 2000 (DC 2.4 cells; FIG. 7-9, listed as 11R2C18A1): high transfection efficiency; also recorded: equivalent to or higher than |
| CCCCCCCCCCCCCCCC(=O)N(CCC1CCCN1C)C(C(=O)NCCCCCCNC(=O)C(C(C)C)N(CCC1CCCN1C)C(=O)CCCCCCCCCCCCCCC)C(C)C (centres unmarked) [I1R11C16A1] |  | high transfection efficiency; also recorded: equivalent to or higher than |  |
| CCCCCCCCCCCCCCCCCC(=O)N(CCC1CCCN1C)C(C(=O)NCCCCCCNC(=O)C(C(C)C)N(CCC1CCCN1C)C(=O)CCCCCCCCCCCCCCCCC)C(C)C (centres unmarked) [I1R11C18A1] |  |  | mRNA transfection efficiency (eGFP-mRNA), compared with Lipofectamine 2000 (DC 2.4 cells; FIG. 7-9, listed as 11R11C18A1): high transfection efficiency; also recorded: equivalent to or higher than |
| CCCCC/C=C\C/C=C\CCCCCCCC(=O)N(CCN(C)C)C(C(=O)NCCOCCOCCNC(=O)C(C(C)C)N(CCN(C)C)C(=O)CCCCCCC/C=C\C/C=C\CCCCC)C(C)C (centres unmarked) [I2R1C18-2A1] | reaches or is higher than; also recorded: equivalent to or higher than |  |  |
| CCCCCCCCCCCCCC(=O)N(CCCN(C)C)C(C(=O)NCCOCCOCCNC(=O)C(C(C)C)N(CCCN(C)C)C(=O)CCCCCCCCCCCCC)C(C)C (centres unmarked) [I2R2C14A1] | reaches or is higher than; also recorded: equivalent to or higher than | high transfection efficiency; also recorded: equivalent to or higher than |  |
| CCCCCCCCCCCCCC(=O)N(CCCN(CC)CC)C(C(=O)NCCOCCOCCNC(=O)C(C(C)C)N(CCCN(CC)CC)C(=O)CCCCCCCCCCCCC)C(C)C (centres unmarked) [I2R3C14A1] |  | high transfection efficiency; also recorded: equivalent to or higher than |  |
| CCCCCCCCCCCCCC(=O)N(CCC1CCCN1C)C(C(=O)NCCOCCOCCNC(=O)C(C(C)C)N(CCC1CCCN1C)C(=O)CCCCCCCCCCCCC)C(C)C (centres unmarked) [I2R11C14A1] | reaches or is higher than; also recorded: equivalent to or higher than | high transfection efficiency; also recorded: equivalent to or higher than |  |
| CCCCCCCCCCCCCCCC(=O)N(CCC1CCCN1C)C(C(=O)NCCOCCOCCNC(=O)C(C(C)C)N(CCC1CCCN1C)C(=O)CCCCCCCCCCCCCCC)C(C)C (centres unmarked) [I2R11C16A1] | reaches or is higher than; also recorded: equivalent to or higher than | high transfection efficiency; also recorded: equivalent to or higher than |  |
